Experimental data from article PMC11270923 (BMC Chemistry, 2024).

How the values were obtained:
[1] = Thermodynamic dissolution properties from Van't Hoff and Gibbs equations; format: physicochemical
Description: The Gibbs and […] equations were used to determine the thermodynamic parameters of dissolution. A mean harmonic temperature of 305.55 K was utilized for the calculations, which were based on a temperature range of 298.15 K to 313.15 K [35]. […] On the other hand, ΔHsolno can be calculated by plotting lnx1 versus 1/T-1/Thm which is called van’t Hoff plot:16 ΔHsolno=-R(∂lnx1/∂(1/T-1/Thm))P 17 ΔGsolno=-RThm×intercept
By solving Eqs. 16 and 17, we can determine the values of the parameters ΔHsolno and ΔGsolno . The standard molar entropy of dissolution, ΔSsolno , can then be calculated using the following equation [40–42]:18 ΔSsolno=ΔHsolno-ΔGsolno/Thm
The relative contributions of entropy and enthalpy to the standard molar Gibbs free energy of dissolution of ACP are explained by Eqs. 17, 18, as shown by the symbols ξH and ξTS , respectively:19 %ξH=ΔHsolno/ΔHsolno+TΔSsolno×100 20 %ξTS=TΔSsolno/ΔHsolno+TΔSsolno×100

[2] = 298.15 K, methanol + water, 0.1 methanol weight fraction; cited from earlier work
[3] = water+[DEA]La w3=0.0000, mean temperature 305.55 K
[4] = water+[DEA]La w3=0.0200, mean temperature 305.55 K
[5] = water+[DEA]La w3=0.0500, mean temperature 305.55 K
[6] = water+[DEA]La w3=0.0700, mean temperature 305.55 K
[7] = water+[DEA]La w3=0.1000, mean temperature 305.55 K
[8] = water+[DEA]La w3=0.1500, mean temperature 305.55 K
[9] = water+[DEA]La w3=0.2000, mean temperature 305.55 K
[10] = water+[MEA]La w3=0.0000, mean temperature 305.55 K
[11] = water+[MEA]La w3=0.0200, mean temperature 305.55 K
[12] = water+[MEA]La w3=0.0500, mean temperature 305.55 K
[13] = water+[MEA]La w3=0.0700, mean temperature 305.55 K
[14] = water+[MEA]La w3=0.1000, mean temperature 305.55 K
[15] = water+[MEA]La w3=0.1500, mean temperature 305.55 K
[16] = water+[MEA]La w3=0.2000, mean temperature 305.55 K
[17] = water+[TEA]La w3=0.0000, mean temperature 305.55 K
[18] = water+[TEA]La w3=0.0200, mean temperature 305.55 K
[19] = water+[TEA]La w3=0.0500, mean temperature 305.55 K
[20] = water+[TEA]La w3=0.0700, mean temperature 305.55 K
[21] = water+[TEA]La w3=0.1000, mean temperature 305.55 K
[22] = water+[TEA]La w3=0.1500, mean temperature 305.55 K
[23] = water+[TEA]La w3=0.2000, mean temperature 305.55 K

CC(=O)Nc1ccc(O)cc1 [ACP, Acetaminophen]
TMΔHsoln∘ [1, 3]: 2.289 kcal/mol | ΔGsoln∘ [1, 3]: 3.6702 kcal/mol | ΔHsoln∘ [1, 3]: 5.9591 kcal/mol | ξH [1, 3]: 72.250% | ξTS [1, 3]: 27.750% | TMΔHsoln∘ [1, 4]: 1.438 kcal/mol | ΔGsoln∘ [1, 4]: 3.489 kcal/mol | ΔHsoln∘ [1, 4]: 4.9264 kcal/mol | ξH [1, 4]: 77.411% | ξTS [1, 4]: 22.589% | TMΔHsoln∘ [1, 5]: 0.108 kcal/mol | ΔGsoln∘ [1, 5]: 3.3989 kcal/mol | ΔHsoln∘ [1, 5]: 3.5065 kcal/mol | ξH [1, 5]: 97.024% | ξTS [1, 5]: 2.976% | ΔGsoln∘ [1, 6]: 3.3511 kcal/mol | ΔHsoln∘ [1, 6]: 3.1637 kcal/mol | ξH [1, 6]: 94.407% | ξTS [1, 6]: 5.593% | TMΔHsoln∘ [1, 7]: 0.679 kcal/mol | ΔGsoln∘ [1, 7]: 3.2808 kcal/mol | ΔHsoln∘ [1, 7]: 3.9601 kcal/mol | ξH [1, 7]: 85.361% | ξTS [1, 7]: 14.639% | TMΔHsoln∘ [1, 8]: 0.123 kcal/mol | ΔGsoln∘ [1, 8]: 3.2333 kcal/mol | ΔHsoln∘ [1, 8]: 3.3559 kcal/mol | ξH [1, 8]: 96.472% | ξTS [1, 8]: 3.528% | TMΔHsoln∘ [1, 9]: 0.3011 kcal/mol | ΔGsoln∘ [1, 9]: 3.1683 kcal/mol | ΔHsoln∘ [1, 9]: 3.4692 kcal/mol | ξH [1, 9]: 92.015% | ξTS [1, 9]: 7.985% | TMΔHsoln∘ [1, 10]: 2.289 kcal/mol | ΔGsoln∘ [1, 10]: 3.6702 kcal/mol | ΔHsoln∘ [1, 10]: 5.9591 kcal/mol | ξH [1, 10]: 72.250% | ξTS [1, 10]: 27.750% | TMΔHsoln∘ [1, 11]: 1.168 kcal/mol | ΔGsoln∘ [1, 11]: 3.4405 kcal/mol | ΔHsoln∘ [1, 11]: 4.609 kcal/mol | ξH [1, 11]: 79.777% | ξTS [1, 11]: 20.223% | ΔGsoln∘ [1, 12]: 3.3752 kcal/mol | ΔHsoln∘ [1, 12]: 3.3439 kcal/mol | ξH [1, 12]: 99.076% | ξTS [1, 12]: 0.924% | ΔGsoln∘ [1, 13]: 3.2777 kcal/mol | ΔHsoln∘ [1, 13]: 2.9484 kcal/mol | ξH [1, 13]: 89.953% | ξTS [1, 13]: 10.047% | ΔGsoln∘ [1, 14]: 3.2139 kcal/mol | ΔHsoln∘ [1, 14]: 3.1785 kcal/mol | ξH [1, 14]: 98.898% | ξTS [1, 14]: 1.102% | TMΔHsoln∘ [1, 15]: 0.4615 kcal/mol | ΔGsoln∘ [1, 15]: 3.1248 kcal/mol | ΔHsoln∘ [1, 15]: 3.5863 kcal/mol | ξH [1, 15]: 88.600% | ξTS [1, 15]: 11.400% | TMΔHsoln∘ [1, 16]: 0.2928 kcal/mol | ΔGsoln∘ [1, 16]: 3.0667 kcal/mol | ΔHsoln∘ [1, 16]: 3.3595 kcal/mol | ξH [1, 16]: 91.982% | ξTS [1, 16]: 8.018% | TMΔHsoln∘ [1, 17]: 2.289 kcal/mol | ΔGsoln∘ [1, 17]: 3.6702 kcal/mol | ΔHsoln∘ [1, 17]: 5.9591 kcal/mol | ξH [1, 17]: 72.250% | ξTS [1, 17]: 27.750% | TMΔHsoln∘ [1, 18]: 1.658 kcal/mol | ΔGsoln∘ [1, 18]: 3.5837 kcal/mol | ΔHsoln∘ [1, 18]: 5.2416 kcal/mol | ξH [1, 18]: 75.970% | ξTS [1, 18]: 24.030% | TMΔHsoln∘ [1, 19]: 0.196 kcal/mol | ΔGsoln∘ [1, 19]: 3.5172 kcal/mol | ΔHsoln∘ [1, 19]: 3.713 kcal/mol | ξH [1, 19]: 94.992% | ξTS [1, 19]: 5.008% | TMΔHsoln∘ [1, 20]: 0.0473 kcal/mol | ΔGsoln∘ [1, 20]: 3.4422 kcal/mol | ΔHsoln∘ [1, 20]: 3.4895 kcal/mol | ξH [1, 20]: 98.659% | ξTS [1, 20]: 1.341% | TMΔHsoln∘ [1, 21]: 0.7775 kcal/mol | ΔGsoln∘ [1, 21]: 3.3774 kcal/mol | ΔHsoln∘ [1, 21]: 4.1549 kcal/mol | ξH [1, 21]: 84.235% | ξTS [1, 21]: 15.765% | TMΔHsoln∘ [1, 22]: 0.3346 kcal/mol | ΔGsoln∘ [1, 22]: 3.2775 kcal/mol | ΔHsoln∘ [1, 22]: 3.6121 kcal/mol | ξH [1, 22]: 91.522% | ξTS [1, 22]: 8.478% | TMΔHsoln∘ [1, 23]: 0.4285 kcal/mol | ΔGsoln∘ [1, 23]: 3.2144 kcal/mol | ΔHsoln∘ [1, 23]: 3.6429 kcal/mol | ξH [1, 23]: 89.476% | ξTS [1, 23]: 10.524% | ACP solubility [2]: 2.65 × 10^–3 mole fraction
